The values that follow come from patent US8765684B2, “Solid materials of {[(2S,5R,8S,11S)-5-benzyl-11-(3-guanidino-propyl)-8-isopropyl-7-methyl-3,6,9,12,15-pentaoxo-1,4,7,10,13-pentaaza-cyclopentadec-2-yl]-acetic acid} and methods for obtaining them” (Merck Patent GmbH, priority 2009, dated 2014).

Data set [1] can be described thus: Solid-state properties (hygroscopicity, stability, dissolution) stated in comparison with amorphous material and salts. The class given is physicochemical. The settings on record: solid material; for Hygroscopicity: comparison crystalline forms vs amorphous material.
Data set [2] is classed as physicochemical.
Source text: Preferably, the anhydrates or ansolvates according to the invention and especially the crystalline form A1 can be characterised, alternatively or additionally, by dynamic vapour sorption experiments. The results can be obtained by standard techniques as described in Rolf Hilfiker, ‘Polymorphism in the Pharmaceutical Industry’, Wiley-VCH. Weinheim 2006 (Chapter 9: Water Vapour Sorption, and references therein). […] Eur. criteria.
Preferably, the tetrasolvates according to the invention, more preferably the tetrahydrates according to the invention and especially the crystalline form S3 can be characterised, alternatively or additionally, by dynamic vapour sorption experiments. The results can be obtained by standard techniques as described in Rolf Hilfiker, ‘Polymorphism in the Pharmaceutical Industry’, Wiley-VCH. Weinheim 2006 (Chapter 9: Water Vapour Sorption, and references therein).
Dynamic Vapor Sorption measurements are preferably obtained on a SMS DVS Intrinsic system. The results are preferably obtained by standard techniques as described by Rolf Hilfiker “Polymorphism in the Pharmaceutical Industry” Wiley-VCH Weinheim 2006 (Chapter 9: Water Vapour Sorption, and references therein.) Approx. 2-10 mg of samples are preferably weighed into an Aluminium 100 μL pan and placed in the sample incubator of the DVS instrument with microbalance. A nitrogen overall flow rate of 200 mL/min (combined dry and humid stream) is preferably used for humidification. Water vapor sorption isotherms are preferably acquired at 25° C. in the range 0% relative humidity to 98% relative humidity mostly with 10% relative humidity steps. For all relative humidity steps, an equilibrium condition of dm/dt≦0.0005 wt %/min are preferably used, with a minimum relative humidity step time of 10 minutes and a maximum relative humidity step time of 360 minutes which is preferably used as a timeout if the dm/dt criterai mentioned above is not been reached.
A SMS DVS I system is used for the dynamic vapour experiments regarding crystalline form S3. The results have been obtained by standard techniques as described in Rolf Hilfiker, ‘Polymorphism in the Pharmaceutical Industry’, Wiley-VCH. Weinheim 2006 (Chapter 9: Water Vapour Sorption, and references therein). […] During the water adsorption cycle there is shown an assembly of water molecules (ca. 10 wt%) in the lattice at elevated rh. In the second desorption cycle there is a loss of this amount of water.
(§1) A SMS DVS Intrinsic is used for the dynamic vapour experiments. The results are obtained by standard techniques as described in Rolf Hilfiker, ‘Polymorphism in the Pharmaceutical Industry’, Wiley-VCH. Weinheim 2006 (Chapter 9: Water Vapour Sorption, and references therein). […] Upon water vapour adsorption, an assembly of water molecules in the lattice is observed, with a maximum weight gain of approx. 8 wt % at elevated rh. In the second desorption cycle a total mass loss of approx. 9.9 wt % is observed. For a Cilengitide Dihydrate Di-Methanolate, the calculated Methanol content equals 9.3 wt %.
as §1, with “6.4” for “8”, “9.2” for “9.9”, “Di-Ethanolate,” for “Di-Methanolate,”, “Ethanol” for “Methanol”, “12.5” for “9.3”

Data set [3] can be described thus: Methanol vapour sorption (DVS, hydrate form to form S1). It counts as physicochemical. The method, then: In the respective dynamic vapor sorption experiments discussed in more detail herein using methanol vapor at 98% relative saturation for the Dihydrate-dimethanolate/crystalline form S1 at 25° C. starting with the tetrahydrate a mass gain of 9% has been obtained. This is in good agreement with the above shown results for the tetramethanolate (calculated 108.5%, i.e. 8.5% of mass gain).
Preferably, the tetrasolvates according to the invention, more preferably the Dihydrate-dimethanolate, the Dihydrate-methanolate, the Dihydrate-monoethanolate, the Dimethanolate and/or the desolvates thereof, and especially the crystalline form S1 can be characterised, alternatively or additionally, by dynamic vapour experiments using water vapour and/or methanol vapour. The results can be obtained by standard techniques as described in Rolf Hilfiker, ‘Polymorphism in the Pharmaceutical Industry’, Wiley-VCH. Weinheim 2006 (Chapter 9: Water Vapour Sorption, and references therein).
Upon water vapour adsorption, an assembly of water molecules in the lattice is observed, with a maximum weight gain of approx. 8 wt % at elevated rh. In the second desorption cycle a total mass loss of approx. 9.9 wt % is observed. For a Dihydrate Di-Methanolate of the compound of formula I, the calculated Methanol content equals 9.3 wt %. […] Methanol Vapour Sorption Isotherm (25° C.) of a hydrate form to form S1 (SMS DVS Advantage) FIG. 14.
Thus, crystalline form S1 is a crystalline Methanol solvate form or a mixed water/methanol solvate form, preferably selected from the Dihydrate-methanolate, the Dihydrate-monoethanolate, the Dimethanolate and/or the desolvates thereof, which can be obtained e.g. via Methanol Vapour Sorption, preferably via Methanol Vapour Sorption starting with a hydrate structure, such as the hydrates according to the invention and especially the tetrahydrate according to the invention, i.e crystalline form S3. […]

A short description of data set [4]: Competitive slurry conversion of pseudopolymorphic form and form A1 (1:1) in Water/Methanol and Water/Ethanol mixtures. The class given is physicochemical. The note with it: for Methanol in the mixture with Water leading to form S1: 1:1 pseudopolymorphic form + A1. The method, then:
b) Additionally, crystalline tetrasolvates according invention and especially crystalline forms S1 and S2 can be manufactured by competitive slurry conversion experiments with a mixture of a pseudopolymorphic form (for example S1, S2, S3 or mixtures of these) with form A1 (1:1) in Water/Methanol and Water/Ethanol mixtures with different alcohol contents at different temperatures, respectively.
Approx. 20 mg of a pseudopolymorphic form (for example S1, S2, S3 or mixtures of these) and 20 mg of form A1 of Cilengitide are dispersed in 300 μl Water/alcohol mixture at 0° C. or room temperature (25° C.). The dispersion is stirred for 24 h and additionally for 3 weeks at RT (25° C.) (long-term experiment) by a magnetic stirrer and finally filtered
Approx. 20 mg of a pseudopolymorphic form (for example S1, S2, S3 or mixtures of these) and 20 mg of form A1 of Cilengitide are dispersed in 300 μl Water/alcohol mixture at 50° C. The dispersion is stirred for 24 h by a magnetic stirrer and finally filtered.
Additionally form A1 can be manufactured by competitive slurry conversion experiments with a mixture of a pseudopolymorphic form (for example S1, S2, S3 or mixtures of these) and form A1 (1:1) in Water/Methanol and Water/Ethanol mixtures with different alcohol contents at different temperatures. In the following table the conditions for the experiments leading to the pure form A1 are listed.
Approx. 20 mg of a pseudopolymorphic form (for example S1, S2, S3 or mixtures of these) and 20 mg of form A1 of Cilengitide are dispersed in 300 μl Water/alcohol mixture at 0° C., room temperature and 50° C. The dispersion is stirred for 24 h and additionally for 3 weeks at RT (25° C.) (long-term experiment) by a magnetic stirrer and finally filtered.

Data set [5] in a line: Conditioning of amorphous Cilengitide under methanol atmosphere. The class given is physicochemical. The note with it: MeOH liquid phase 100 v %. The source says: As still another example, conditioning of amorphous material of the compound according to formula I or hydrate forms under methanol atmosphere yielded crystalline solvates with 2 molecules methanol per molecule of the compound according to formula I.
Conditioning of amorphous Cilengitide (abbreviated: Cil; Cilengitide=Cyclo-(Arg-Gly-Asp-DPhe-NMeVal) under methanol atmosphere yielded a solvate with 2 molecules methanol per molecule Cilengitide.

Data set [6] is described as follows: Slurry conversion and competitive slurry conversion in water, saline, buffer and other solvents. It counts as physicochemical. The note with it: in the presence of aqueous based solvents (suspensions, wetted material), absence of methanol and/or ethanol. The procedure:
a) Crystalline tetrasolvates according to the invention and especially crystalline forms S1 and S2, can be obtained by slurry conversion from form A1 in a Methanol/Water mixture (70 v %:30 v %) at 25° C. for 2 days stirring time and Ethanol/Water mixture (60 v %:40 v %) at 25° C. for 18 days stirring time, respectively. General procedure:
Approx. 500 mg of form A1 of Cilengitide are dispersed in 5 ml solvent at room temperature. The dispersion is stirred for the mentioned time by a magnetic stirrer and finally filtered.
Form A1 of Cilengitide can be obtained by slurry conversion from pseudopolymorphic forms (for example S1, S2, S3 or mixtures of these) in Water at 25° C. An increased temperature (50° C.) accelerates the conversion to form A1.
Approx. 10 g of a pseudopolymorphic form (for example S1, S2, S3 or mixtures of these) of Cilengitide are dispersed in 50 ml deionised water at room temperature. The dispersion is stirred for 24 h by a magnetic stirrer and finally filtered.
Also the pure form form A1 can be manufactured by competitive slurry conversion experiments with a mixture of a pseudopolymorphic form (for example S1, S2, S3 or mixtures of these) and A1 (1:1) in Acetone, Acetonitrile, Isopropanol, physiological NaCl solution, Phosphate buffer (pH 7.4) and 1:1 (v:v) mixtures of Acetone, Acetonitrile, Isopropanol with Water at RT (25° C.).
Approx. […]

[7] abbreviates: water vapour sorption, 25° C., listed as S1.
Setting [8] is: 50° C. for 1 day, table of b579.
Setting [9] is: 50° C. for 1 day, table of b595.

On to `CC(C)[C@H]1C(=O)N[C@@H](CCCNC(=N)N)C(=O)NCC(=O)N[C@@H](CC(=O)O)C(=O)N[C@H](Cc2ccccc2)C(=O)N1C` [amorphous material, cyclo-(Arg-Gly-Asp-DPhe-NMe-Val)], for which the Hygroscopicity result is recorded as “unfavourably hygroscopic” in data set [1] (listed as amorphous forms) and “very high hygroscopicity” in data set [1] (listed as amorphous solid material). Also, the “Physical and/or chemical (solid state) stability” value in data set [1] (comparison crystalline forms vs amorphous phase) is “low stability”.
In the case of “cyclo-(Arg-Gly-Asp-DPhe-NMe-Val) [crystalline form S1]”, the “Maximum weight gain upon water vapour adsorption” value in data set [2] (elevated rh, 25° C., listed as S1) was “approx. 8 wt %”. Besides, the “Mass loss in the first desorption cycle” value in data set [2] (setting [7]) was “approx. 8 wt %”. Further, the “Total mass loss in the second desorption cycle” value in data set [2] (setting [7]) is given as “approx. 9.9 wt %”. The “Thermodynamic stability of the form” value in data set [3] (atmosphere of 100% Methanol vapour) was “thermodynamically stable form”. Moreover, the “Methanol taken up by the sample” value in data set [3] (elevated Methanol partial pressure, starting with a hydrate structure) was “approx. 9 wt %”. This molecule also returned a Mass gain in data set [3] (methanol vapor at 98% relative saturation, 25° C., starting with the tetrahydrate) of 9%. The “Methanol in the mixture with Water leading to form S1” value in data set [4] (0° C. for 1 day) is 40-100 v %; in data set [4] (RT for 3 weeks), 60-100 v %; in data set [4] (RT for 1 day) it was 60-100 v %. Also, the figures for the “H2O KF” value in data set [5] and in data set [5] (per 1 mol Cil) were 0.3 wt % and 0.1 mol, respectively. Further, the “MeOH HS-GC” value in data set [5] came out at 10.0 wt %; in data set [5] (per 1 mol Cil), 2.1 mol. The “Σ TG” value in data set [5] amounted to 10.4 wt %.
On to “cyclo-(Arg-Gly-Asp-DPhe-NMe-Val) [crystalline form A1]”, for which the “Physical stability of the crystal form versus relative humidity” value in data set [2] was “physical stability of the crystal form throughout the entire relative humidity range (0-98%)”. For the same molecule, the Hygroscopicity classification result in data set [2] (acc. to Ph. Eur. criteria, water vapour sorption 25° C.) is “non-hygroscopic”. Also, the Water uptake levels entry in data set [2] (up to 98% relative humidity, 25° C.) is “small”. Moreover, the “Formation or conversion to a hydrate” value in data set [2] (water vapour sorption up to 98% relative humidity) was “No formation or conversion to a hydrate is observed”. Further, the “Ethanol in the mixture with Water leading to pure form A1” value in data set [4] (0° C. for 1 day) is 0-10 v %; in data set [4] (setting [9]), 0-80 v %; in data set [4] (RT for 3 weeks), 0-20 v %; in data set [4] (RT for 1 day), 0-30 v %. The “Methanol in the mixture with Water leading to pure form A1” value is listed as 0 v % in data set [4] (0° C. for 1 day), 0-70 v % in data set [4] (setting [9]), 0-40 v % in data set [4] (RT for 3 weeks) and 0-50 v % in data set [4] (RT for 1 day). Further, the “Ethanol in the mixture with Water leading to form A1 (no pseudopolymorphic form obtained)” value in data set [4] (setting [8]) is reported as 90-100 v %. The “Methanol in the mixture with Water leading to form A1 (no pseudopolymorphic form obtained)” value in data set [4] (setting [8]) was 90-100 v %. The “Thermodynamic stability of the form” value in data set [6] is on record as “thermodynamically stable form”.
